From paper PMC9239059, “Structure-Guided Synthesis of FK506 and FK520 Analogs with Increased Selectivity Exhibit In Vivo Therapeutic Efficacy against Cryptococcus” (mBio, 2022)
≈ marks a conversion by molar mass, not a printed value.

Key:
[1] = target: T1, FKBP12 (Aspergillus fumigatus, UniProt Q4WLV6); test: BLI, compound-mediated ternary complex formation, […] compound; type: binding
T1 construct: gene fpr1A; biotinylated (Avi-tagged) FKBP12; with CnA-CnB-calmodulin

[2] = target: T2, FKBP12 (Candida albicans, UniProt C4YFI3+C4YS24+P28870); test: as above; type: binding
T2 construct: gene RBP1; biotinylated (Avi-tagged) FKBP12; with CnA-CnB-calmodulin

[3] = test system: T3, Cryptococcus neoformans (H99); test: microbe, parasite or virus in culture; parameters: CLSI M27-A3 broth microdilution in RPMI 1640 at 37 C, growth inhibition of C. neoformans (MIC); conditions: Cryptococcus neoformans, read-out: MIC (μg/mL) against: / Cryptococcus neoformans (H99)^a
T3 construct: H99
Experimental: (§1) In vitro antifungal activities of FK506, FK520, and analogs were assessed in RPMI 1640 (Sigma-Aldrich) for all strains tested. MICs/minimum effective concentrations (MECs) for each drug were measured using modified Clinical and Laboratory Standards Institute (CLSI) M38-A2 and M27-A3 standard in vitro antifungal susceptibility protocols. Broth microdilution assays for MIC/MEC assessment were performed as described previously ([33]). All antifungal assays with C. neoformans were performed at 37°C. Antifungal susceptibility testing for C. albicans was performed in the presence of a uniform 1 μg/mL concentration of fluconazole to sensitize the organism to calcineurin inhibition. MICs/minimum effective concentrations (MECs) were determined for each of the novel analogs against the three major human fungal pathogens, A. fumigatus, C. neoformans, and C. albicans. […] Thus, analogs of FK506 and FK520 can tolerate up to 100-fold reduction in antifungal activity and still be considered for in vivo testing. For C. neoformans, MICs were the most uniform and ranged from 0.2 to 2 μg/mL, which is between 4- and 40-fold reduced for antifungal activity. C. albicans MICs ranged from 0.2 to 6.25 μg/mL, which is between 10- and 312.5-fold reduced for activity. Despite being one of the most difficult to treat fungal infections, all six analogs were active against A. fumigatus with MECs ranging from 1 to 2 μg/mL or a 62.5- to 125-fold reduction in activity.

[4] = test system: Aspergillus niger; test: microbe, parasite or virus in culture; parameters: species or system Aspergillus fumigatus and other molds; modified CLSI M38-A2 broth microdilution in RPMI 1640, mold growth inhibition (MIC/MEC); conditions: Aspergillus niger; MIC/MEC
Experimental: as §1, with “in activity. Two FK520 analogs, JH-FK-05 and JH-FK-07, maintained high levels of broad-spectrum antifungal activity across the three species, and JH-FK-07 had the lowest MICs for both C. neoformans and C. albicans. To assess the antifungal activity against other human fungal pathogens, we selected JH-FK-05 to test against a panel of pathogenic molds and drug-resistant A. fumigatus strains (Table S3). JH-FK-05 registered MECs as low as 1 μg/mL for some of these highly recalcitrant species, such as Mucor circinelloides, Rhizopus oryzae, and pan azole-resistant A. fumigatus (strain F14946).” for “in activity.”

[5] = test system: Paecilomyces variotti; test: microbe, parasite or virus in culture; parameters: species or system Aspergillus fumigatus and other molds; modified CLSI M38-A2 broth microdilution in RPMI 1640, mold growth inhibition (MIC/MEC); conditions: Paecilomyces; MIC/MEC
Experimental: as §1, with “in activity. Two FK520 analogs, JH-FK-05 and JH-FK-07, maintained high levels of broad-spectrum antifungal activity across the three species, and JH-FK-07 had the lowest MICs for both C. neoformans and C. albicans. To assess the antifungal activity against other human fungal pathogens, we selected JH-FK-05 to test against a panel of pathogenic molds and drug-resistant A. fumigatus strains (Table S3). JH-FK-05 registered MECs as low as 1 μg/mL for some of these highly recalcitrant species, such as Mucor circinelloides, Rhizopus oryzae, and pan azole-resistant A. fumigatus (strain F14946).” for “in activity.”

[6] = test system: T4, Aspergillus fumigatus F16216; test: microbe, parasite or virus in culture; parameters: species or system Aspergillus fumigatus and other molds; modified CLSI M38-A2 broth microdilution in RPMI 1640, mold growth inhibition (MIC/MEC); conditions: F16216, MIC/MEC, azole-resistant strain
T4 construct: F16216
Experimental: as §1, with “in activity. Two FK520 analogs, JH-FK-05 and JH-FK-07, maintained high levels of broad-spectrum antifungal activity across the three species, and JH-FK-07 had the lowest MICs for both C. neoformans and C. albicans. To assess the antifungal activity against other human fungal pathogens, we selected JH-FK-05 to test against a panel of pathogenic molds and drug-resistant A. fumigatus strains (Table S3). JH-FK-05 registered MECs as low as 1 μg/mL for some of these highly recalcitrant species, such as Mucor circinelloides, Rhizopus oryzae, and pan azole-resistant A. fumigatus (strain F14946).” for “in activity.”

[7] = test system: Scedosporium prolificans; test: microbe, parasite or virus in culture; parameters: species or system Aspergillus fumigatus and other molds; modified CLSI M38-A2 broth microdilution in RPMI 1640, mold growth inhibition (MIC/MEC); conditions: Lomentospora prolificans; MIC/MEC
Experimental: as §1, with “in activity. Two FK520 analogs, JH-FK-05 and JH-FK-07, maintained high levels of broad-spectrum antifungal activity across the three species, and JH-FK-07 had the lowest MICs for both C. neoformans and C. albicans. To assess the antifungal activity against other human fungal pathogens, we selected JH-FK-05 to test against a panel of pathogenic molds and drug-resistant A. fumigatus strains (Table S3). JH-FK-05 registered MECs as low as 1 μg/mL for some of these highly recalcitrant species, such as Mucor circinelloides, Rhizopus oryzae, and pan azole-resistant A. fumigatus (strain F14946).” for “in activity.”

[8] = test system: T5, Aspergillus fumigatus F7075; test: microbe, parasite or virus in culture; parameters: species or system Aspergillus fumigatus and other molds; modified CLSI M38-A2 broth microdilution in RPMI 1640, mold growth inhibition (MIC/MEC); conditions: F7075, MIC/MEC, azole-resistant strain
T5 construct: F7075
Experimental: as §1, with “in activity. Two FK520 analogs, JH-FK-05 and JH-FK-07, maintained high levels of broad-spectrum antifungal activity across the three species, and JH-FK-07 had the lowest MICs for both C. neoformans and C. albicans. To assess the antifungal activity against other human fungal pathogens, we selected JH-FK-05 to test against a panel of pathogenic molds and drug-resistant A. fumigatus strains (Table S3). JH-FK-05 registered MECs as low as 1 μg/mL for some of these highly recalcitrant species, such as Mucor circinelloides, Rhizopus oryzae, and pan azole-resistant A. fumigatus (strain F14946).” for “in activity.”

[9] = test system: Rhizopus oryzae; test: microbe, parasite or virus in culture; parameters: species or system Aspergillus fumigatus and other molds; modified CLSI M38-A2 broth microdilution in RPMI 1640, mold growth inhibition (MIC/MEC); conditions: Rhizopus arrhizus; MIC/MEC
Experimental: as §1, with “in activity. Two FK520 analogs, JH-FK-05 and JH-FK-07, maintained high levels of broad-spectrum antifungal activity across the three species, and JH-FK-07 had the lowest MICs for both C. neoformans and C. albicans. To assess the antifungal activity against other human fungal pathogens, we selected JH-FK-05 to test against a panel of pathogenic molds and drug-resistant A. fumigatus strains (Table S3). JH-FK-05 registered MECs as low as 1 μg/mL for some of these highly recalcitrant species, such as Mucor circinelloides, Rhizopus oryzae, and pan azole-resistant A. fumigatus (strain F14946).” for “in activity.”

T2 sequence (P28870 whole entry): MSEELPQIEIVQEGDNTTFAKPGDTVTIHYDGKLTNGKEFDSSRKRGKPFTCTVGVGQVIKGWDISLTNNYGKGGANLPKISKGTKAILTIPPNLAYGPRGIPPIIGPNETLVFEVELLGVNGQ
T2 sequence (C4YFI3 54-445): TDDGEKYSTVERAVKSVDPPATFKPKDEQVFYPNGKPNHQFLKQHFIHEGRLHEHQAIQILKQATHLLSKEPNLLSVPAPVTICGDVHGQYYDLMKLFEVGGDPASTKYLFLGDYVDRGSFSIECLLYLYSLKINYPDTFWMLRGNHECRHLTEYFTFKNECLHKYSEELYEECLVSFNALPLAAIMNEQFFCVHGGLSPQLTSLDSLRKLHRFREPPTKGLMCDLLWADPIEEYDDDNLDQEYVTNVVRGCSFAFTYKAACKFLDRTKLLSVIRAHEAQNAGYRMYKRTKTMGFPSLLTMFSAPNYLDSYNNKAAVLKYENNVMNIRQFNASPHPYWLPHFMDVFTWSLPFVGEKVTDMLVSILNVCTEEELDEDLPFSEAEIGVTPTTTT
T2 sequence (C4YS24 1-173): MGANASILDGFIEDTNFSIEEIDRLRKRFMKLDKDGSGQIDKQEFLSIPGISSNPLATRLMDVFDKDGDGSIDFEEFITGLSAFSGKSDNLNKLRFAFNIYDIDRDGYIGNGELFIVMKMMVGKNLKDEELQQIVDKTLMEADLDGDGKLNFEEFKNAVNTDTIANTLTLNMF
T2 sequence (P23286 whole entry partner): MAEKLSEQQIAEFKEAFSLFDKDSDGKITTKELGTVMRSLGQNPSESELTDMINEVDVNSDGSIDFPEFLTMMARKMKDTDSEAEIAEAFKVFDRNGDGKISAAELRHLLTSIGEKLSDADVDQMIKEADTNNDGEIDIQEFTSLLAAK
T1 sequence (Q4WLV6 whole entry): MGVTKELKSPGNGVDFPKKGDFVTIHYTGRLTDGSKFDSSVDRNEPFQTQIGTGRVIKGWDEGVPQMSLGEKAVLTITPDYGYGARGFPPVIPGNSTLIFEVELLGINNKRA
T1 sequence (Q4WUR1 whole entry partner): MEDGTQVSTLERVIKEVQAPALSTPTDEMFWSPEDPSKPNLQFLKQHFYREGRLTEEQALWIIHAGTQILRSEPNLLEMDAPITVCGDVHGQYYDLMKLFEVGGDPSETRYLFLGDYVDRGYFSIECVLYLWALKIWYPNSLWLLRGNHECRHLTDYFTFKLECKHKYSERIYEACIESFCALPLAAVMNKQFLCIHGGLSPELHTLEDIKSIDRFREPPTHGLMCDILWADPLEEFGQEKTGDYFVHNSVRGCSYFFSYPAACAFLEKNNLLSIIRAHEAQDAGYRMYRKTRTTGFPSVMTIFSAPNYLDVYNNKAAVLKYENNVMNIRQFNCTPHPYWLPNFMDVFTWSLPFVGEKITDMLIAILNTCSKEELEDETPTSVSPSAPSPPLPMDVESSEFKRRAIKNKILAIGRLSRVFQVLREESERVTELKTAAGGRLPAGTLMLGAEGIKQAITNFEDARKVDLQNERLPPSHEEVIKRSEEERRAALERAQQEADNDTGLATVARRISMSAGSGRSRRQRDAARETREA

CC[C@@H]1/C=C(\C)C[C@H](C)C[C@H](OC)[C@H]2O[C@@](O)(C(=O)C(=O)N3CCCC[C@H]3C(=O)O[C@H](/C(C)=C/[C@@H]3CC[C@@H](O)[C@H](OC)C3)[C@H](C)[C@@H](O)C/C1=N/NC(C)=O)[C@H](C)C[C@@H]2OC [JH-FK-05]
BLI, compound-mediated ternary complex formation, 10 μM compound [1]: target complexes form in the presence of the analogs with affinities similar to those of the parent compounds | BLI, compound-mediated ternary complex formation, 10 μM compound [2]: target complexes form in the presence of the analogs with affinities similar to those of the parent compounds | MIC [3]: 1 µg/mL (≈ 1.18 µM) | MIC [4]: < 1 µg/mL | MIC [5]: > 8 µg/mL | MIC [6]: 1 µg/mL (≈ 1.18 µM) | MIC [7]: > 8 µg/mL | MIC [8]: 2 µg/mL (≈ 2.36 µM) | MIC [9]: 1 µg/mL (≈ 1.18 µM)
